From PubChem BioAssay (NCI)
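Tested at 5 concentrations; 48 h exposure; 96-well plates; endpoints linearly interpolated, else capped at highest concentration. Abbreviation: GI50, concentration required for 50% inhibition of growth. TGI is the concentration that stops growth completely.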

Columns and labels:
Assay in all cases: NCI-60 cell line screen, 48 h
[1] = tested on: 786-0 renal
[2] = tested on: A498 renal
[3] = tested on: A549 NSCLC
[4] = tested on: ACHN renal
[5] = tested on: BT-549 breast
[6] = tested on: CAKI-1 renal
[7] = tested on: CCRF-CEM leukemia
[8] = tested on: COLO 205 colon
[9] = tested on: DU-145 prostate
[10] = tested on: EKVX NSCLC
[11] = tested on: HCC-2998 colon
[12] = tested on: HCT-116 colon
[13] = tested on: HCT-15 colon
[14] = tested on: HL-60(TB) leukemia
[15] = tested on: HOP-62 NSCLC
[16] = tested on: HOP-92 NSCLC
[17] = tested on: HS 578T breast
[18] = tested on: HT29 colon
[19] = tested on: IGROV1 ovarian
[20] = tested on: K-562 leukemia
[21] = tested on: KM12 colon
[22] = tested on: LOX IMVI melanoma
[23] = tested on: M14 melanoma
[24] = tested on: MALME-3M melanoma
[25] = tested on: MCF7 breast
[26] = tested on: MDA-MB-231 breast
[27] = tested on: MDA-MB-435
[28] = tested on: MOLT-4 leukemia
[29] = tested on: NCI-H226 lung
[30] = tested on: NCI-H23 lung
[31] = tested on: NCI-H460 lung
[32] = tested on: NCI-H522 lung
[33] = tested on: NCI/ADR-RES ovarian
[34] = tested on: OVCAR-3 ovarian
[35] = tested on: OVCAR-4 ovarian
[36] = tested on: OVCAR-5 ovarian
[37] = tested on: OVCAR-8 ovarian
[38] = tested on: PC-3 prostate
[39] = tested on: RPMI-8226 leukemia
[40] = tested on: RXF 393 renal
[41] = tested on: SF-268 CNS
[42] = tested on: SF-295 CNS
[43] = tested on: SF-539 CNS
[44] = tested on: SK-MEL-2 melanoma
[45] = tested on: SK-MEL-28 melanoma
[46] = tested on: SK-MEL-5 melanoma
[47] = tested on: SK-OV-3 ovarian
[48] = tested on: SN12C renal
[49] = tested on: SNB-19 CNS
[50] = tested on: SNB-75 CNS
[51] = tested on: SR leukemia
[52] = tested on: SW-620 colon
[53] = tested on: T-47D breast
[54] = tested on: TK-10 renal
[55] = tested on: U251 CNS
[56] = tested on: UACC-257 melanoma
[57] = tested on: UACC-62 melanoma
[58] = tested on: UO-31 renal

With `Cc1ccc(NSc2ccccc2[N+](=O)[O-])cc1` the GI50 [1] was 1.5 µM, the TGI [1] was 16.3 µM and the GI50 [2] was 0.186 µM. For the same compound, the TGI [2] was 3.75 µM, the GI50 [3] was 0.951 µM and the TGI [3] was 17.1 µM. For the same compound, the GI50 [4] was 2.3 µM, the TGI [4] was 23.4 µM and the GI50 [5] was 2.21 µM. The TGI [5] was 23 µM, the GI50 [6] was 1.36 µM and the TGI [6] was 25.3 µM. The GI50 [7] was 0.85 µM, the TGI [7] was greater than 52.2 µM and the GI50 [8] was 0.149 µM. The TGI [8] was 3.44 µM, the GI50 [9] was 0.984 µM and the TGI [9] was 15.3 µM. The GI50 [10] was 2.89 µM, the TGI [10] was 22.4 µM and the GI50 [11] was 1.82 µM. For the same compound, the TGI [11] was 10.6 µM, the GI50 [12] was 0.48 µM and the TGI [12] was 12.1 µM. It also gave a GI50 [13] of 0.155 µM, a TGI [13] of 14.2 µM and a GI50 [14] of 0.368 µM. For the same compound, the TGI [14] was 14.5 µM, the GI50 [15] was 0.283 µM and the TGI [15] was 18.8 µM. For the same compound, the GI50 [16] was 0.502 µM, the TGI [16] was 13.7 µM and the GI50 [17] was 0.921 µM. The TGI [17] was 13.8 µM, the GI50 [18] was 0.117 µM and the TGI [18] was 12.3 µM. For the same compound, the GI50 [19] was 1.25 µM, the TGI [19] was 28.2 µM and the GI50 [20] was 0.125 µM. For the same compound, the TGI [20] was 22.9 µM, the GI50 [21] was 0.141 µM and the TGI [21] was 12.5 µM. For the same compound, the GI50 [22] was 0.912 µM, the TGI [22] was 18.5 µM and the GI50 [23] was 0.146 µM. The TGI [23] was 15.3 µM, the GI50 [24] was 3.21 µM and the TGI [24] was 28.9 µM. The GI50 [25] was 0.133 µM, the TGI [25] was 16.2 µM and the GI50 [26] was 1.06 µM. It also gave a TGI [26] of 15.5 µM, a GI50 [27] of 0.0678 µM and a TGI [27] of 0.171 µM. It also gave a GI50 [28] of 0.208 µM, a TGI [28] greater than 62.7 µM and a GI50 [29] of 4.04 µM. It also gave a TGI [29] of 20.8 µM, a GI50 [30] of 1.58 µM and a TGI [30] of 22.6 µM. It also gave a GI50 [31] of 0.432 µM, a TGI [31] of 11.1 µM and a GI50 [32] of 0.435 µM. For the same compound, the TGI [32] was 13.4 µM, the GI50 [33] was 0.148 µM and the TGI [33] was 14.3 µM. The GI50 [34] was 0.503 µM, the TGI [34] was 7.4 µM and the GI50 [35] was 6.26 µM. The TGI [35] was 23.2 µM, the GI50 [36] was 3.42 µM and the TGI [36] was 20.9 µM. For the same compound, the GI50 [37] was 2.91 µM, the TGI [37] was 36.3 µM and the GI50 [38] was 1.29 µM. It also gave a TGI [38] of 16.6 µM, a GI50 [39] of 0.925 µM and a TGI [39] of 52.3 µM. It also gave a GI50 [40] of 0.868 µM, a TGI [40] of 5.27 µM and a GI50 [41] of 1.15 µM. It also gave a TGI [41] of 19.7 µM, a GI50 [42] of 0.889 µM and a TGI [42] of 9.18 µM. The GI50 [43] was 0.847 µM, the TGI [43] was 5.11 µM and the GI50 [44] was 1.17 µM. It also gave a TGI [44] of 21.9 µM, a GI50 [45] of 7.71 µM and a TGI [45] of 26.4 µM. The GI50 [46] was 0.152 µM, the TGI [46] was 13.6 µM and the GI50 [47] was 1.06 µM. It also gave a TGI [47] of 20.1 µM, a GI50 [48] of 1.3 µM and a TGI [48] of 21.1 µM. The GI50 [49] was 1.22 µM, the TGI [49] was 19.6 µM and the GI50 [50] was 0.557 µM. For the same compound, the TGI [50] was 9.32 µM, the GI50 [51] was 0.113 µM and the TGI [51] was 36 µM. For the same compound, the GI50 [52] was 0.137 µM, the TGI [52] was 16.2 µM and the GI50 [53] was 0.444 µM. The TGI [53] was 40.4 µM, the GI50 [54] was 10.4 µM and the TGI [54] was 25.4 µM. The GI50 [55] was 0.768 µM, the TGI [55] was 16.3 µM and the GI50 [56] was 17.4 µM. It also gave a TGI [56] of 36.7 µM, a GI50 [57] of 0.157 µM and a TGI [57] of 17 µM. It also gave a GI50 [58] of 2.07 µM and a TGI [58] of 16 µM.
